These results are taken from patent US9115144B2, “Fused heterocyclic derivative and pharmaceutical use thereof” (KISSEI PHARMACEUTICAL CO., LTD., priority 2011, dated 2015).

The target of test [1] is Xanthine oxidase (from bovine milk, Sigma) (Bos taurus (Bovine), UniProt P80457). Briefly: Xanthine oxidase inhibitory activity. Type of test: biochemical. The following applies: xanthine 200 μM added at 100 μL/well, 10 minutes at room temperature, absorbance at 290 nm. The protocol: Xanthine Oxidase Inhibitory Activity
Xanthine oxidase (from bovine milk, Sigma), sequence (P80457 whole entry): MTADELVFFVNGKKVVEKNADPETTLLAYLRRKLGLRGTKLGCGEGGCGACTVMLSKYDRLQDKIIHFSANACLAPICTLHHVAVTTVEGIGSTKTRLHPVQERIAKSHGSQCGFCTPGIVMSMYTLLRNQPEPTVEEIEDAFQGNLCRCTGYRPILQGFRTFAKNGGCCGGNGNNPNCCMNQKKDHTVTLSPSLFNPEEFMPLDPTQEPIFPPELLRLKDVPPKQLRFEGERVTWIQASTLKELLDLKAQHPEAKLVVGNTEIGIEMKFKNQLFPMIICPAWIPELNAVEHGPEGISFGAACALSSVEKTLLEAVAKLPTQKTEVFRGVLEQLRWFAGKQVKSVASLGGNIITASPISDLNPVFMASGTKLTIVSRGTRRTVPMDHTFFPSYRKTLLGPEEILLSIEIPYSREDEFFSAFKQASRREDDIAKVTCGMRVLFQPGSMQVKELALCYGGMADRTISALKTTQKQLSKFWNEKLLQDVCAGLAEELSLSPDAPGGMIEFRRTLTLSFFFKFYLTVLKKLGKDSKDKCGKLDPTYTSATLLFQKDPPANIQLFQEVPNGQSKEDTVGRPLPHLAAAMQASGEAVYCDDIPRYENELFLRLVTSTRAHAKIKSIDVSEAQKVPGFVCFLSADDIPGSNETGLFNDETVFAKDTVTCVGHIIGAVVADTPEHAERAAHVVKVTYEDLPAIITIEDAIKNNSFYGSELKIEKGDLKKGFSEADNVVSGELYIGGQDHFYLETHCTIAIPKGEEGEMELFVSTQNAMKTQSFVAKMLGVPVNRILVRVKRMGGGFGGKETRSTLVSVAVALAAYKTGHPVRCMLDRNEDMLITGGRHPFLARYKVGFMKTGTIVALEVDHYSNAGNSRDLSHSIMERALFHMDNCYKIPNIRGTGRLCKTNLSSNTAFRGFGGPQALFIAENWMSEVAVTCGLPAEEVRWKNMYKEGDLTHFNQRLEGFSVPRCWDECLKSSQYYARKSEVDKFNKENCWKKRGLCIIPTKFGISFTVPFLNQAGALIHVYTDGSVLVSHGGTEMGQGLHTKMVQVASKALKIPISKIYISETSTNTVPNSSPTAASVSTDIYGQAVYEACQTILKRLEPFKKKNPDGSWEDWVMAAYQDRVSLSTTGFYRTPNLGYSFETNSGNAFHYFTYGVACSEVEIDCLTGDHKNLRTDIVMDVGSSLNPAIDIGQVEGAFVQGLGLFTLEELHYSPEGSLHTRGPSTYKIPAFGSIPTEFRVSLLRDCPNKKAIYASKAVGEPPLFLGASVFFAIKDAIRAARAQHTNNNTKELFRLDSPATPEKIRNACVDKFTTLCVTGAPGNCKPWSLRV
(1) Preparation of Test Compounds
Test compounds were dissolved in dimethyl sulfoxide (DMSO) (manufactured by Wako pure chemical) at 40 mM concentration and then diluted to intended concentrations with phosphate-buffered saline (PBS).
(2) Method for Measurement
Xanthine oxidase (from bovine milk, Sigma) was prepared with phosphate-buffered saline (PBS) at 0.02 units/mL, and then the solution was added to 96 well plates at 50 μL/well. In addition, test compounds diluted with PBS were added at 50 μL/well. Xanthine (manufactured by Wako pure chemical) at 200 μM prepared with PBS was added at 100 μL/well, and the reaction was conducted for 10 minutes at room temperature. Absorbance at 290 nm was measured by using a microplate reader SpectraMax Plus 384 (manufactured by Molecular device). The absorbance under a condition without xanthine is 0%, and control without test compounds is 100%. Fifty % inhibitory concentration of a test compounds (IC50) was calculated (Table 5). “Ex. No.” in the table indicates Example number.

Test [2] concerns the target human URAT1 (Homo sapiens (Human), UniProt Q96S37). Briefly: Inhibitory activity of uric acid transport with human URAT1 expressing cells. Type of test: cell-based. The conditions noted are these: 10 μM test compound; URAT1-expressing HEK293 cells; 14C uric acid 50 μM, 2 minutes at 37° C.; read-out: Percent inhibition of uric acid uptake. The protocol: Inhibitory Activity of Uric Acid Transport with Human URAT1 Expressing Cells
(1) Cells Used in the Test
URAT1-expressing HEK293 cells (HEK293 cells transfected with vector containing human URAT1 cDNA) and control cells (HEK293 cells transfected with vector alone) were used.
URAT1-expressing cells and control cells were seeded in collagen I-coated 24-well plates (manufactured by Becton, Dickinson and Company) at 1 to 4×10^5 cells/well, and cultured in CO2 incubator (37° C., CO2: 5%) for 1 to 3 days, and then the following measurement of uric acid transport was conducted. […]
After the medium was removed from the plates in which cells were seeded, and 1 mL of HBSS was added to the cells. […] The radioactivity was measured by means of a liquid scintillation counter. […]
Protein concentration in the cell lysates was determined by BCA Protein Assay Kit (manufactured by Pierce) and then amount of protein (mg/well) was calculated. […]
Uric acid uptake activity in each well was calculated by the following formula. Uric acid uptake activity (p mol/mg protein)=radioactivity (dpm/well)/[amount of protein (mg/well)×concentration of radioactivity in HBSS containing ^14C uric acid (dpm/p mol)]
Percent inhibition was calculated according to the following formula. […]

The structures appear in SMILES notation.

human URAT1, sequence (Q96S37 whole entry): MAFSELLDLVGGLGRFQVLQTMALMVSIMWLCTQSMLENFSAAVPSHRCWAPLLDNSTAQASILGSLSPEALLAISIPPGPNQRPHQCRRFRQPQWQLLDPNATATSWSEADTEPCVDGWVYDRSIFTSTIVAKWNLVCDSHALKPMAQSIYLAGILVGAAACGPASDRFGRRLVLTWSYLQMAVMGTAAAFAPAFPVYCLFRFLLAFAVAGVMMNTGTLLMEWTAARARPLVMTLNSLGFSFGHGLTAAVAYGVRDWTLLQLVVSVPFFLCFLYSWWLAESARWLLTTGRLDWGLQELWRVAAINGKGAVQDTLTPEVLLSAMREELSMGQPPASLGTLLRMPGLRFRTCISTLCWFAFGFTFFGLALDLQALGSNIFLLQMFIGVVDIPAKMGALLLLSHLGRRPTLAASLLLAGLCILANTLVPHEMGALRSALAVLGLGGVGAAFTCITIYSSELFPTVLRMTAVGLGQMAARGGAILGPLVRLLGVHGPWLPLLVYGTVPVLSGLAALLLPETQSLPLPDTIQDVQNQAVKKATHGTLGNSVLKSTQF

In the case of `N#Cc1cn(-c2ccc(C(=O)O)c(O)c2)c2ccsc12` [Example 5, 4-(6-Cyano-thieno[3,2-b]pyrrol-4-yl)-2-hydroxybenzoic acid], the concentration for half-maximal inhibition (IC50) (as a rule, the concentration at which inhibition is half-maximal) in test [1] was determined as 10 nM. This lies in the double-digit nanomolar range.

In test [1], `N#Cc1cn(-c2ccc(C(=O)O)c(O)c2)c2cscc12` [Example 7] came in with an IC50 of 10 nM. On the same count and under the same terms, the figure for `N#Cc1cn(-c2ccc(C(=O)O)c(O)c2)c2sc(Br)cc12` [Example 8] is 14 nM. Regarding `N#Cc1cn(-c2ccc(C(=O)O)c(O)c2)c2sccc12` [Example 9], in test [2], the inhibition – broadly, the drop in the measured response relative to a control, in per cent – at 10 µM is at least 50%. This compound also yielded an IC50 in test [1] of 13 nM.

Turning to `Cc1cc2c(s1)c(C#N)cn2-c1ccc(C(=O)O)c(O)c1` [Example 1, 4-(6-Cyano-2-methyl-thieno[3,2-b]pyrrol-4-yl)-2-hydroxybenzoic acid], the IC50 in test [1] came to 13 nM.
